In the SangsterLogP compilation:

Assay: method code SF-AS, from DOI: 10.1021/jm00226a007, PMID: 817022
Settings: pH 7.4

logD	SMILES
-0.98	NNC(=O)c1ccnc(N)c1
1.36	NNC(=O)c1ccnc(-c2ccccc2)c1
0.63	CCCc1cc(C(=O)NN)ccn1
0.52	NNC(=O)c1ccnc(I)c1
0.25	NNC(=O)c1ccnc(Br)c1
1.01	NNC(=O)c1ccnc(Cc2ccccc2)c1
1.02	CC(C)Cc1cc(C(=O)NN)ccn1
-0.76	NNC(=O)c1ccnc([N+](=O)[O-])c1
0.12	CCc1cc(C(=O)NN)ccn1
0.11	NNC(=O)c1ccnc(Cl)c1
-1.25	CC(=O)Nc1cc(C(=O)NN)ccn1
-1.58	CC(=O)NCc1cc(C(=O)NN)ccn1
-0.11	NNC(=O)c1ccnc(F)c1
1.12	CCN(CC)c1cc(C(=O)NN)ccn1
0.48	CCOc1cc(C(=O)NN)ccn1
-0.37	Cc1cc(C(=O)NN)ccn1

Assay: method code SF, from DOI: 10.1021/jm00226a007, PMID: 817022
Settings: pH 7.4

logD	SMILES
-0.1	COc1cc(C(=O)NN)ccn1
